Experimental data: ChEMBL document CHEMBL3217680, “Synthesis and antiproliferative activity of some 3-(pyrid-2-yl)-pyrazolines” (Medchemcomm, 2013)
Active and inactive are the calls of the source. The rule behind the calls is not given here.

Experiments:
MDA-MB-231 [1] = test: Antiproliferative activity against human MDA-MB-231 cells by MTS assay; type: functional, cell-based
HT-29 [2] = test: Antiproliferative activity against human HT-29 cells by MTS assay; type: functional, cell-based
HT-29 [3] = test: Inhibition of microtubule formation in human HT-29 cells at 5 uM using Dm1a tubulin antibodies by confocal microscopy; type: cell-based
Tubulin (Homo sapiens) [4] = molecular target: T1, Tubulin (Homo sapiens) (UniProt P68371+Q9H4B7+P0DPH7+P68366+Q13509+Q71U36+P04350+Q3ZCM7+P07437+P68363+Q9BQE3+Q6PEY2+Q13885+Q9BVA1+Q9BUF5); test: Inhibition of tubulin (unknown origin) polymerization at 20 uM; type: protein-complex assay
HT-29 [5] = test: Cell cycle arrest in human HT-29 cells assessed as accumulation at G2/M phase at 5 uM by […]propidium iodide staining-based FACS analysis (reference value: 22.8 %); type: functional
HT-29 [6] = test: Cell cycle arrest in human HT-29 cells assessed as accumulation at S phase at 5 uM by […]propidium iodide staining-based FACS analysis (reference value: 13.6 %); type: functional
HT-29 [7] = test: Cell cycle arrest in human HT-29 cells assessed as accumulation at G1 phase at 5 uM by […]propidium iodide staining-based FACS analysis (reference value: 60.2 %); type: functional
HT-29 [8] = test: Cell cycle arrest in human HT-29 cells assessed as accumulation at G2/M phase at 1 uM by […]propidium iodide staining-based FACS analysis (reference value: 22.8 %); type: functional
HT-29 [9] = test: Cell cycle arrest in human HT-29 cells assessed as accumulation at S phase at 1 uM by […]propidium iodide staining-based FACS analysis (reference value: 13.6 %); type: functional
HT-29 [10] = test: Cell cycle arrest in human HT-29 cells assessed as accumulation at G1 phase at 1 uM by […]propidium iodide staining-based FACS analysis (reference value: 60.2 %); type: functional
HT-29 [11] = test: Cell cycle arrest in human HT-29 cells assessed as accumulation at G2/M phase at 100 nM by […]propidium iodide staining-based FACS analysis (reference value: 22.8 %); type: functional
HT-29 [12] = test: Cell cycle arrest in human HT-29 cells assessed as accumulation at S phase at 100 nM by […]propidium iodide staining-based FACS analysis (reference value: 13.6 %); type: functional
HT-29 [13] = test: Cell cycle arrest in human HT-29 cells assessed as accumulation at G1 phase at 100 nM by […]propidium iodide staining-based FACS analysis (reference value: 60.2 %); type: functional
MDA-MB-468 = test: Growth inhibition of human MDA-MB-468 cells; type: functional
[14] = Growth inhibition of human BT549 cells; type: functional; conditions: BT-549
T47D = test: Growth inhibition of human T47D cells; type: functional
MCF7 = test: Growth inhibition of human MCF7 cells; type: functional
MDA-MB-231 [15] = test: Growth inhibition of human MDA-MB-231 cells; type: functional
[16] = Growth inhibition of human Hs 578T cells; type: functional
PC-3 = test: Growth inhibition of human PC3 cells; type: functional
DU-145 = test: Growth inhibition of human DU145 cells; type: functional
TK-10 = test: Growth inhibition of human TK10 cells; type: functional
[17] = Growth inhibition of human UO31 cells; type: functional; conditions: UO-31
CAKI-1 = test: Growth inhibition of human CAKI-1 cells; type: functional
[18] = Growth inhibition of human RXF393 cells; type: functional; conditions: RXF 393
SN12C = test: Growth inhibition of human SN12C cells; type: functional
A498 = test: Growth inhibition of human A498 cells; type: functional
ACHN = test: Growth inhibition of human ACHN cells; type: functional
SK-OV-3 = test: Growth inhibition of human SKOV3 cells; type: functional
786-0 = test: Growth inhibition of human 786-0 cells; type: functional
[19] = Growth inhibition of human OVCAR5 cells; type: functional; conditions: OVCAR-5
[20] = Growth inhibition of human OVCAR8 cells; type: functional; conditions: OVCAR-8
[21] = Growth inhibition of human NCI-ADR-RES cells; type: functional
[22] = Growth inhibition of human OVCAR3 cells; type: functional; conditions: OVCAR-3
[23] = Growth inhibition of human OVCAR4 cells; type: functional; conditions: OVCAR-4
[24] = Growth inhibition of human UACC62 cells; type: functional; conditions: UACC-62
IGROV-1 = test: Growth inhibition of human IGROV1 cells; type: functional
SK-MEL-28 = test: Growth inhibition of human SK-MEL-28 cells; type: functional
SK-MEL-5 = test: Growth inhibition of human SK-MEL-5 cells; type: functional
[25] = Growth inhibition of human UACC257 cells; type: functional; conditions: UACC-257
MDA-MB-435 = test: Growth inhibition of human MDA-MB-435 cells; type: functional
SK-MEL-2 = test: Growth inhibition of human SK-MEL-2 cells; type: functional
Malme-3M = test: Growth inhibition of human MALME-3M cells; type: functional
M14 = test: Growth inhibition of human M14 cells; type: functional
SNB-75 = test: Growth inhibition of human SNB75 cells; type: functional
U-251 = test: Growth inhibition of human U251 cells; type: functional
[26] = Growth inhibition of human LOXIMVI cells; type: functional; conditions: LOX IMVI
[27] = Growth inhibition of human SF539 cells; type: functional; conditions: SF-539
SNB-19 = test: Growth inhibition of human SNB19 cells; type: functional
SF-268 = test: Growth inhibition of human SF268 cells; type: functional
SW-620 = test: Growth inhibition of human SW620 cells; type: functional
HT-29 [28] = test: Growth inhibition of human HT-29 cells; type: functional
KM12 = test: Growth inhibition of human KM12 cells; type: functional
[29] = Growth inhibition of human HCT15 cells; type: functional; conditions: HCT-15
HCT-116 = test: Growth inhibition of human HCT116 cells; type: functional
[30] = Growth inhibition of human HCC2998 cells; type: functional; conditions: HCC 2998
COLO 205 = test: Growth inhibition of human COLO205 cells; type: functional
NCI-H322M = test: Growth inhibition of human NCI-H322M cells; type: functional
NCI-H460 = test: Growth inhibition of human NCI-H460 cells; type: functional
NCI-H522 = test: Growth inhibition of human NCI-H522 cells; type: functional
NCI-H226 = test: Growth inhibition of human NCI-H226 cells; type: functional
NCI-H23 = test: Growth inhibition of human NCI-H23 cells; type: functional
[31] = Growth inhibition of human EKVX cells; type: functional
HOP-62 = test: Growth inhibition of human HOP62 cells; type: functional
[32] = Growth inhibition of human HOP92 cells; type: functional; conditions: HOP-92
SR = test: Growth inhibition of human SR cells; type: functional
A549 = test: Growth inhibition of human A549/ATCC cells; type: functional
RPMI-8226 = test: Growth inhibition of human RPMI8226 cells; type: functional
[33] = Growth inhibition of human MOLT4 cells; type: functional; conditions: MOLT-4
HL-60(TB) = test: Growth inhibition of human HL-60(TB) cells; type: functional
CCRF-CEM = test: Growth inhibition of human CCRF-CEM cells; type: functional
HT-29 [34] = test: Inhibition of microtubule formation in human HT-29 cells at 100 nM using Dm1a tubulin antibodies by confocal microscopy; type: cell-based
Tubulin (Homo sapiens) [35] = molecular target: T1, Tubulin (Homo sapiens); test: Induction of tubulin (unknown origin) polymerization at 5 uM; type: protein-complex assay

COc1cc(C2CC(c3ccccn3)=NN2C(C)=O)cc(OC)c1OC (configuration not stated)
IC50 (MDA-MB-231 [1]): 52500 nM | IC50 (HT-29 [2]): > 500000 nM

COc1cc(C(=O)N2N=C(c3ccccn3)C[C@@H]2c2ccccc2)cc(OC)c1OC
inhibition (HT-29 [3]): Active | inhibition (Tubulin (Homo sapiens) [4]): Active | Activity (HT-29 [5]): 94.8% | Activity (HT-29 [6]): 2% | Activity (HT-29 [7]): 2.3% | Activity (HT-29 [8]): 49.7% | Activity (HT-29 [9]): 10.3% | Activity (HT-29 [10]): 38.5% | Activity (HT-29 [11]): 88.8% | Activity (HT-29 [12]): 2.8% | Activity (HT-29 [13]): 7.9% | GI50 (MDA-MB-468): 417 nM | GI50 [14]: 5130 nM | GI50 (T47D): > 100000 nM | GI50 (MCF7): 324 nM | GI50 (MDA-MB-231 [15]): 989 nM | GI50 [16]: 9180 nM | GI50 (PC-3): > 100000 nM | GI50 (DU-145): 4260 nM | GI50 (TK-10): > 100000 nM | GI50 [17]: 5010 nM | GI50 (CAKI-1): 493 nM | GI50 [18]: 1030 nM | GI50 (SN12C): 3530 nM | GI50 (A498): 943 nM | GI50 (ACHN): 4290 nM | GI50 (SK-OV-3): 762 nM | GI50 (786-0): 1540 nM | GI50 [19]: 4010 nM | GI50 [20]: 3280 nM | GI50 [21]: 519 nM | GI50 [22]: 719 nM | GI50 [23]: 5950 nM | GI50 [24]: 541 nM | GI50 (IGROV-1): 7130 nM | GI50 (SK-MEL-28): 1510 nM | GI50 (SK-MEL-5): 432 nM | GI50 [25]: > 100000 nM | GI50 (MDA-MB-435): 273 nM | GI50 (SK-MEL-2): 699 nM | GI50 (Malme-3M): > 100000 nM | GI50 (M14): 801 nM | GI50 (SNB-75): 277 nM | GI50 (U-251): 868 nM | GI50 [26]: 1130 nM | GI50 [27]: 1060 nM | GI50 (SNB-19): 1890 nM | GI50 (SF-268): 33400 nM | GI50 (SW-620): 567 nM | GI50 (HT-29 [28]): 431 nM | GI50 (KM12): 711 nM | GI50 [29]: 848 nM | GI50 (HCT-116): 586 nM | GI50 [30]: 2320 nM | GI50 (COLO 205): 585 nM | GI50 (NCI-H322M): > 100000 nM | GI50 (NCI-H460): 505 nM | GI50 (NCI-H522): 688 nM | GI50 (NCI-H226): 1330 nM | GI50 (NCI-H23): 3450 nM | GI50 [31]: > 100000 nM | GI50 (HOP-62): 1820 nM | GI50 [32]: > 100000 nM | GI50 (SR): 415 nM | GI50 (A549): 952 nM | GI50 (RPMI-8226): 66300 nM | GI50 [33]: 4460 nM | GI50 (HL-60(TB)): 747 nM | GI50 (CCRF-CEM): 2080 nM | IC50 (MDA-MB-231 [1]): 690 nM | IC50 (HT-29 [2]): 2530 nM

CNC(=S)N1N=C(c2ccccn2)C[C@H]1c1ccccc1
IC50 (MDA-MB-231 [1]): 20700 nM | IC50 (HT-29 [2]): 25600 nM

NC(=S)N1N=C(c2ccccn2)C[C@H]1c1ccccc1
IC50 (MDA-MB-231 [1]): 140000 nM | IC50 (HT-29 [2]): 350000 nM

O=C(N1N=C(c2ccccn2)CC1c1ccccc1)C(F)(F)F (configuration not stated)
IC50 (MDA-MB-231 [1]): > 500000 nM | IC50 (HT-29 [2]): > 500000 nM

COc1cc2c(c(OC)c1OC)-c1ccc(OC)c(=O)cc1[C@@H](NC(C)=O)CC2 [COLCHICINE]
inhibition (HT-29 [34]): Active | IC50 (MDA-MB-231 [1]): 8 nM | IC50 (HT-29 [2]): 8 nM

COc1cc(/C=C/C(=O)c2ccccn2)cc(OC)c1OC
IC50 (MDA-MB-231 [1]): 9700 nM | IC50 (HT-29 [2]): 9600 nM

CC(=O)O[C@H]1C(=O)[C@@]2(C)[C@H]([C@H](OC(=O)c3ccccc3)[C@]3(O)C[C@H](OC(=O)[C@H](O)[C@@H](NC(=O)c4ccccc4)c4ccccc4)C(C)=C1C3(C)C)[C@]1(OC(C)=O)CO[C@@H]1C[C@@H]2O
Activity (Tubulin (Homo sapiens) [35]): Active

O=C(c1ccccc1)N1N=C(c2ccccn2)C[C@H]1c1ccccc1
IC50 (MDA-MB-231 [1]): > 500000 nM | IC50 (HT-29 [2]): > 500000 nM

c1ccc(C2CC(c3ccccn3)=NN2c2ccccc2)cc1 (configuration not stated)
IC50 (MDA-MB-231 [1]): 60200 nM | IC50 (HT-29 [2]): 53800 nM

COc1cc(C(=O)N2N=C(c3ccccn3)CC2c2cc(OC)c(OC)c(OC)c2)cc(OC)c1OC (configuration not stated)
IC50 (MDA-MB-231 [1]): 11400 nM | IC50 (HT-29 [2]): 22500 nM

COc1cc(C2CC(c3ccccn3)=NN2c2ccccc2)cc(OC)c1OC (configuration not stated)
IC50 (MDA-MB-231 [1]): 4360 nM | IC50 (HT-29 [2]): 26200 nM

CN1N=C(c2ccccn2)CC1c1ccccc1 (configuration not stated)
IC50 (MDA-MB-231 [1]): 135000 nM | IC50 (HT-29 [2]): 116000 nM

CC(=O)N1N=C(c2ccccn2)CC1c1ccccc1 (configuration not stated)
IC50 (MDA-MB-231 [1]): 294000 nM | IC50 (HT-29 [2]): 161000 nM
